Among the data in publication PMC10659432 (bioRxiv, 2023) are EC50 values, retold here.

In assay [1] the target is T1, 5-HT1FR (Homo sapiens, UniProt P30939). In words: BRET Gi1 activation assay in transfected HEK293T cells, agonism. It counts as cell-based. (In general: BRET reads energy transfer from a luciferase to a nearby fluorophore.)
Assay [2] deals with T2, 5-HT1eR (Homo sapiens, UniProt P28566). Description: cryoEM structure at […] Å.
Target sequence in this assay (P28566 whole entry): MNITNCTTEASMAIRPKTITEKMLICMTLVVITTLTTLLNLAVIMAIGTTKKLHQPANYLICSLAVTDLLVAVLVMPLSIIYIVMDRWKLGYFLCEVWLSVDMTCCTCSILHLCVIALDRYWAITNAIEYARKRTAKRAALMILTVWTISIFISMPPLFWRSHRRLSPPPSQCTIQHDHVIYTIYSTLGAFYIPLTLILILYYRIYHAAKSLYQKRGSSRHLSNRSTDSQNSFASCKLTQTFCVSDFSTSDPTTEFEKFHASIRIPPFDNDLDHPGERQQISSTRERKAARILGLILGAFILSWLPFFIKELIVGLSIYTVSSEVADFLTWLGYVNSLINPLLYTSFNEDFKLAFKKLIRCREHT
For assay [3], the target named is T2, 5-HT1eR. In words: BRET Gi1 activation assay in transfected HEK293T cells, agonism. The class given is cell-based.
Target sequence in this assay (P63096 2-354): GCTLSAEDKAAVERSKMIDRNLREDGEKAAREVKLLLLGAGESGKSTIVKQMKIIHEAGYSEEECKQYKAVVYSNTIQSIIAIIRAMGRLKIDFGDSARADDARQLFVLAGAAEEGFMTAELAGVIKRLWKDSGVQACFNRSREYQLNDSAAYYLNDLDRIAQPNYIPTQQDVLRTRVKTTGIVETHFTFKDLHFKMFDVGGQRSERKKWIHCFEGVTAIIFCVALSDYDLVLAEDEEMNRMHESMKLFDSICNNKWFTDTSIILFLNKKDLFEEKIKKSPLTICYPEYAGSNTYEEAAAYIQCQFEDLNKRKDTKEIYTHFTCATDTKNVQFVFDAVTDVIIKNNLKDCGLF
Target sequence in this assay (P62873 2-340, further chain): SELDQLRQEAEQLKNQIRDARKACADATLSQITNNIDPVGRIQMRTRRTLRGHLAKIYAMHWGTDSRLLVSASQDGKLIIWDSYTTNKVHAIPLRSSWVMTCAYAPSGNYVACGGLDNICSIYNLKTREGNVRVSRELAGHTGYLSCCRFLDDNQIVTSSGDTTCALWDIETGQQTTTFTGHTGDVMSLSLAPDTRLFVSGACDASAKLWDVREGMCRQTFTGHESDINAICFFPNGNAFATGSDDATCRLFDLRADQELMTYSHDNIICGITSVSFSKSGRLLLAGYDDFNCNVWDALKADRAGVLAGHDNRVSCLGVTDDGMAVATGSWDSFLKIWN
Target sequence in this assay (P59768 2-68, further chain): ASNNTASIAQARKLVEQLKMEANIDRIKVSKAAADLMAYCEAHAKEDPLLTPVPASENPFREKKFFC
Target sequence in this assay (P28566 whole entry): as the sequence (P28566 whole entry) above
In assay [4] the target is T1, 5-HT1FR. In words: G protein BRET assay in transfected HEK293T cells, full agonism. The class given is cell-based.
Assay [5] concerns the target T2, 5-HT1eR. Description: cryoEM structure at […] Å. It counts as cell-based.
Target sequence in this assay (P28566 whole entry): as above
Assay [6] concerns the target T1, 5-HT1FR. In words: G protein BRET assay in transfected HEK293T cells, agonism. It counts as cell-based.

T1 sequence (P62873 2-340): as the sequence (P62873 2-340, further chain) above
T1 sequence (P30939 whole entry): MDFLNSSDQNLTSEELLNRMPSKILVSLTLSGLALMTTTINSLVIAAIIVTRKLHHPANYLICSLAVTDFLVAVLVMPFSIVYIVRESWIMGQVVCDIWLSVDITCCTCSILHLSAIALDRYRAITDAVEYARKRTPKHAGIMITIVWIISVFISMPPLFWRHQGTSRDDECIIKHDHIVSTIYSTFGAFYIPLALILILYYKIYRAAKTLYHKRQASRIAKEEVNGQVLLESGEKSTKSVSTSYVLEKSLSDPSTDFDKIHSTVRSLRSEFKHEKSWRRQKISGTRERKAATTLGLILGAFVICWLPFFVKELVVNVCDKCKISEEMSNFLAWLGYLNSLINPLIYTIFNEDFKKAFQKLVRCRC
T1 sequence (P63096 2-354, further chain): as the sequence (P63096 2-354) above
T1 sequence (P59768 2-68, further chain): as the sequence (P59768 2-68, further chain) above

In the case of `CN1CCN2c3ccccc3Cc3ccccc3C2C1` (stereo not shown) [mianserin], the half-maximal effective concentration (EC50) amounted to 47.5 nM in assay [1] and 123 nM in assay [2]. For `CC[C@@H](CO)NC(=O)[C@@H]1C=C2c3cccc4[nH]cc(c34)C[C@H]2N(C)C1` [methylergonovine], the EC50 in assay [1] turned out to be 5.2 nM; in assay [3], 17 nM. Regarding `CN1CCC2=C(C1)c1ccccc1Cc1ccccc12` [setiptiline], the 50% effective concentration (EC50) in assay [4] worked out at 64.6 nM; in assay [5], 171 nM.

`CN1CCC(=C2c3ccccc3Sc3ccccc32)CC1` [pimethixene]: the values for the EC50 in assay [1] and in assay [3] were 456 nM and 353 nM, respectively.

For the compound `CN1CCN2c3ncccc3Cc3ccccc3C2C1` (stereo not shown) [mirtazapine], in assay [6], the half-maximal effective concentration (EC50) was determined as 236 nM. As for `Cc1cc(C(C)(C)C)c(O)c(C)c1CC1=NCCN1` [oxymetazoline], the EC50 in assay [1] turned out to be 11.3 nM.

What is called EC50 is the concentration giving half of the maximal effect.
